Results reported in patent US20260183411A1, “TARGETING SORTILIN” (priority 2024, published 2026).
One block for each molecule: values may come before it. Where no end group is shown, it is not given here. [ ]: non-standard residue; d: D form. Cba = N[C@@H](CC1CCC1)C(=O)O; Tle = CC(C)(C)[C@H](N)C(=O)O

Key:
[1] = test system: MDA-MB-231 xenograft; assay: MDA-MB-231 murine xenograft efficacy model; assay type: in vivo, mouse
Procedure: Murine xenograft experiments were conducted at WuXi AppTec and/or Charles River Laboratories and the care and use of animals was conducted in accordance with the regulations of the Association for Assessment and Accreditation of Laboratory Animal Care (AAALAC). MDA-MB-231 tumor cells (ATCC, Manassas, VA, cat #HTB-26) were grown and maintained in L15 medium supplemented with 10% heat inactivated fetal bovine serum, 1% Antibiotic-Antimycotic, and L-glutamine (2 mM) at 37° C. in an atmosphere in 5% CO2, 95% air. BALB/c Nude, female, 6-8 weeks, weighing approximately 18-22 g were purchased from Vital River Laboratory Animal Technology Co., LTD. Mice were inoculated subcutaneously at the right flank with MDA-MB-231 tumor cells (e.g., triple negative breast cancer cells) (10×10^6) in 0.2 mL of PBS with Matrigel (1:1) for tumor development. Animals were randomized and treatment was started when the average tumor volume reached approximately 150-200 mm^3 for the efficacy study. Dosing volume was adjusted based on body weight and was administered at 10 mL/Kg. […] Free MMAE payload was also tested, and similarly dissolved in 25 mM Histidine 10% sucrose pH 7 and one or more of the following doses, 0.6, 0.06 mg/kg, were administered to the mice i.v. at a QW×4 schedule. Tumor sizes were measured twice weekly in two dimensions using a caliper, and the volume in mm^3 calculated using the formula: V=0.5 a×b^2, where a and b are the long and short diameters of the tumor, respectively. TGI was calculated for each group using the formula: TGI (%)=[1−(Ti−T0)/(Vi−V0)]×100; where Ti is the average tumor volume of a treatment group on a given day, TO is the average tumor volume of the treatment group on the first day of treatment, Vi is the average tumor volume of the vehicle control group on the same day with Ti, and V0 is the average tumor volume of the vehicle group on the first day of treatment.
To characterize the effects of the MMAE payload alone, we included free MMAE at molar equivalency to PDCs, and tested at 0.6 and 0.06 mg/kg, as separate arms.
To characterize the effects of the MMAE payload alone, we included free MMAE at molar equivalency to PDCs, and tested at 0.6 mg/kg.

[2] = Murine hematotoxicity assay; assay type: in vivo, mouse; conditions: 3 mg/kg i.v. QW×4, BALB/c mice
Procedure: (§1) Murine hematotoxicity experiments were conducted at Charles River Laboratories and the care and use of animals was conducted in accordance with the regulations of the Association for Assessment and Accreditation of Laboratory Animal Care (AAALAC). Wild type BALB/c, female, 7-8 weeks, weighing approximately 18-22 g were randomized and dosed intravenously with control or test articles at a QW×4 schedule. Dosing volume was adjusted based on body weight and was administered at 10 mL/Kg. PDCs were dissolved in 25 mM Histidine 10% sucrose pH 7 and 3 mg/kg was administered. Free MMAE payload was also tested, and similarly dissolved in 25 mM Histidine 10% sucrose pH 7 and administered to the mice at a dose of […] by i.v. injection at a QW×4 schedule. 3 days following each dose, 150 μL of whole blood was collected via submandibular method and placed in K2 EDTA tubes stored on ice. Blood neutrophil counts were performed on the day of collection by IDEXX labs. Body weights were recorded twice a week until study endpoint.
as §1, with “As outlined in the material” for “Murine hematotoxicity experiments were conducted at Charles River Laboratories”, “methods” for “the care and use”, “Example 1, wild” for “animals was conducted in accordance with the regulations of the Association for Assessment and Accreditation of Laboratory Animal Care (AAALAC). Wild”, “PDCs were dissolved in 25 mM Histidine 10% sucrose pH 7 and 3 mg/kg was administered.” left out

[3] = Dynamic light scattering (solubility/aggregation); assay type: physicochemical; conditions: working concentrations (250 nM, PBS, pH 7.4)
Procedure: Samples were spun down on a bench top centrifuge, 15 minutes, 15,000 rpm, room temperature, to pellet any aggregated peptide/dust before taking a measurement. Visual inspection of the tubes was used to identify if any large pellets were formed, which is indicative of large aggregates. […] The plate was then transferred and read on the DLS instrument (Wyatt Technology DynaPro Plate Reader III) at 25° C.

[4] = Murine serum stability assay; assay type: in vitro ADME, mouse; conditions: mouse, serum; linear peptides, Table 11; read-out: Murine serum stability assay, T1/2
Procedure: Serum was drawn from male CD-1 mice by Pharmidex. Lyophilized peptides were solubilized in DMSO and then further diluted into male mouse (CD-1) serum at 37° C. in duplicates. The reaction was incubated at 37° C. and samples extracted at 6 time points: 0, 0.16, 0.5, 1, 3, and 6 hrs. Acetonitrile (ACN) with an internal standard (tolbutamide) was added to stop the incubation. Samples were centrifuged, and the supernatant was analyzed by HPLC-MS/MS for the parent compound.

[5] = target: T1, cyno SORT1 (76-753)-His (cyno, UniProt A0A2K5VHG2 74-751); assay: SPR (Biacore 8K), SORT1 on CM5 chip, unconjugated peptide with conjugation handles as analyte, 1:1 model
T1 construct: range 76-753; Amine-coupled to CM5 chip for SPR
T1 sequence: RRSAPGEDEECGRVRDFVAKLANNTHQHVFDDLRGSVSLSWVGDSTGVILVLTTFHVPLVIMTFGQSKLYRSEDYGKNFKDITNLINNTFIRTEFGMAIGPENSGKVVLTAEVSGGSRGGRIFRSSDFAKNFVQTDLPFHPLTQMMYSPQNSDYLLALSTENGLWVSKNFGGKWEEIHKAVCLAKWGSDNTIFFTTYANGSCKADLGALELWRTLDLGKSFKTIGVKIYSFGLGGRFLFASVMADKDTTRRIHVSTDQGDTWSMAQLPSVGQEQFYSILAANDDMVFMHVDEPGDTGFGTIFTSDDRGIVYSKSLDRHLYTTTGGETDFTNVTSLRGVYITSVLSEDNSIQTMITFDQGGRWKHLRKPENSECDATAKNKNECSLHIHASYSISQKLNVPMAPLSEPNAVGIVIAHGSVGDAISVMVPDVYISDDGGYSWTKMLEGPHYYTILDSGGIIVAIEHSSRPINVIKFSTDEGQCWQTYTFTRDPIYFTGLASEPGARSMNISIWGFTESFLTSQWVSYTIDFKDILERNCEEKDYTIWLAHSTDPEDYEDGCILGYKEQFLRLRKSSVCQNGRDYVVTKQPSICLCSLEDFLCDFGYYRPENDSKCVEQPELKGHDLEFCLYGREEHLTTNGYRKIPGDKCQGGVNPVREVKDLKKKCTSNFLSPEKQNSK
Procedure: (§2) SPR analysis was performed on Series S CM5 chips (Cytiva) using a Biacore 8K instrument (Cytiva). Sensorgrams were double-referenced by subtracting the response on both a reference flow cell and a blank sample. Human SORT1 (78-755)-His (Acrobiosystems), human SORT1 (78-755)-His(GenScript), mouse SORT1 (76-753)-His (R&D Systems), rat SORT1 (76-752)-His (GenScript), and cyno SORT1 (76-753)-His (GenScript) were diluted to 20-60 μg/mL in 10 mM sodium acetate pH 4.5 buffer and immobilized onto Series S CM5 chips using amine coupling at a flow rate of 10 μL/min for 45-100 s.
(§3) Ten start-up cycles and a blank cycle preceded each analysis run. The runs were performed by sequential injections of analyte (0-20 nM, 3-fold serial dilutions) with a 90 s association and 900 s dissociation at a flow rate of 30 μL/min, followed by two regeneration cycles with 2 M MgCl2 for 90 s at a flow rate of 10 μL/min. […] Five start-up cycles and a blank cycle preceded each analysis run. The runs were performed by sequential injections of analyte (0-25 nM) with a 150 seconds (s) association and 300 s dissociation at a flow rate of 30 μL/min, followed by a regeneration with 2 M MgCl₂ for 200 s at a flow rate of 10 μL/min. The kinetic rate constants (kₐ and kd) and the equilibrium binding constant (Kd) were calculated using a 1:1 kinetic binding model on the Biacore Insight Evaluation Software (Cytiva).
(§4) SPR analysis was performed on Series S CM5 chips (Cytiva) using a Biacore 8K instrument (Cytiva). Sensorgrams were double-referenced by subtracting the response on both a reference flow cell and a blank sample. The SPR analysis was conducted using four different SORT1 species: Human SORT1, Mouse SORT1, Rat SORT1, and Cyno SORT1. The samples were prepared according to the general procedure described above herein. The kinetic rate constants (ka and […]) and the equilibrium binding constant (Kd) were calculated using a 1:1 kinetic binding model on the Biacore Insight Evaluation Software (Cytiva).

[6] = target: T2, rat SORT1 (76-752)-His (rat, UniProt O54861 76-752); assay: as above
T2 construct: range 76-752; Amine-coupled to CM5 chip for SPR
T2 sequence (looked up): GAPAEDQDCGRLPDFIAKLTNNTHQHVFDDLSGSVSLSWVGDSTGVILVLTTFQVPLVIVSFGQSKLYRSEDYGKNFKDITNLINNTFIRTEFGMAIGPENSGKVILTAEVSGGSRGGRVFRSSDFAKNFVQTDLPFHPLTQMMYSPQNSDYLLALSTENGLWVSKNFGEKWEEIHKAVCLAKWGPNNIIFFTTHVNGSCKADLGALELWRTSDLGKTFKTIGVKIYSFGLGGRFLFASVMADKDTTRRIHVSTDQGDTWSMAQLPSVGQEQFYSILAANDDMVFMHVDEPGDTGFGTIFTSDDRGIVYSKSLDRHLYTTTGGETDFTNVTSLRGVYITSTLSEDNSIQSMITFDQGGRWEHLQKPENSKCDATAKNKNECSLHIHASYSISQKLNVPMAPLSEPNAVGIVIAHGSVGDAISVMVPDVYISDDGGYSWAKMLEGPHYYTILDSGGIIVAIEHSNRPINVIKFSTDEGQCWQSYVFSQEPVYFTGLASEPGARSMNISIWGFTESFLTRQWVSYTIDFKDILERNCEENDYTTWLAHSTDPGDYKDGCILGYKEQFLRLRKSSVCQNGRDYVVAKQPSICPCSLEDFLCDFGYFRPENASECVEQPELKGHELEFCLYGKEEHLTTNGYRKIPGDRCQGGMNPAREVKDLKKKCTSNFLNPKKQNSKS
Procedure: as §2, §3, §4

Molecule: CC[C@H](C)[C@@H]([C@@H](CC(=O)N1CCC[C@H]1[C@H](OC)[C@@H](C)C(=O)N[C@H](C)[C@@H](O)c1ccccc1)OC)N(C)C(=O)[C@@H](NC(=O)[C@H](C(C)C)N(C)C(=O)OCc1ccc(NC(=O)[C@H](CCCNC(N)=O)NC(=O)[C@@H](NC(=O)CCCC(=O)NCCC(=O)N(C)CC(=O)N(C)CC(=O)N(C)CC(=O)N(C)CC(=O)N[C@@H](C)C(=O)N2CCC[C@H]2C(=O)N[C@@H](CCCNC(=N)N)C(=O)N[C@@H](Cc2c[nH]c3ccccc23)C(=O)N[C@@H](CC(=O)O)C(=O)N[C@@H](C)C(=O)N2CCC[C@H]2C(=O)N[C@@H](CC(C)C)C(=O)N[C@@H](CCCNC(=N)N)C(=O)N[C@@H](CC(=O)O)C(=O)N2CCC[C@H]2C(=O)N[C@@H](C)C(=O)N[C@@H](CC(C)C)C(=O)N[C@@H](CCCNC(=N)N)C(=O)N[C@@H](CCC(N)=O)C(=O)N[C@H](C(=O)N[C@@H](CC2CCC2)C(=O)O)C(C)(C)C)C(C)C)cc1)C(C)C [Arb-SAR-Q15-PDC]
- tumor growth inhibited relative to vehicle ([1]; 3 mg/kg i.v. QW×4, day 22): 98%
- body weight loss (Example 8) ([1]; PDCs 3 mg/kg, free MMAE at molar equivalency (0.6 mg/kg)): body weight loss tracked each other
- blood neutrophil counts compared to vehicle or MMAE treatment [2]: reduced neutrophil counts

- solubility (DLS) [3]: good solubility
- half-life [4]: 3.16 min
Molecule: CC(C)C[C@H](NC(=O)[C@H](CC(C)C)NC(=O)[C@H](CCC(N)=O)NC(=O)[C@H](CCCNC(=N)N)NC(=O)[C@H](CC(C)C)NC(=O)[C@H](C)NC(=O)[C@@H]1CCCN1C(=O)[C@H](CC(=O)O)NC(=O)[C@H](CCCNC(=N)N)NC(=O)[C@H](CC(C)C)NC(=O)[C@@H]1CCCN1C(=O)[C@H](C)NC(=O)[C@H](CC(=O)O)NC(=O)[C@H](Cc1c[nH]c2ccccc12)NC(=O)[C@H](CCCNC(=N)N)NC(=O)[C@@H]1CCCN1C(=O)[C@H](C)N)C(=O)O [PRGN_WT]

- solubility (DLS) [3]: good solubility
- half-life [4]: 27.7 min
Molecule: CC(C)C[C@H](NC(=O)[C@H](CCCNC(=N)N)NC(=O)[C@H](CC(C)C)NC(=O)[C@H](C)NC(=O)[C@H](CC(C)C)NC(=O)[C@H](CCCNC(=N)N)NC(=O)[C@H](CCC(N)=O)NC(=O)[C@H](CC(C)C)NC(=O)[C@H](C)NC(=O)[C@@H]1CCCN1C(=O)[C@H](Cc1c[nH]c2ccccc12)NC(=O)[C@@H]1CCCN1C(=O)[C@H](C)NC(=O)[C@H](CCCNC(=N)N)NC(=O)[C@@H]1CCCN1C(=O)[C@H](CC(=O)O)NC(=O)[C@@H](N)CC(=O)O)C(=O)O [PRGN_RL]

- Kd [5]: 0.152 nM
- Kd [6]: 0.757 nM
B1: SORT1 peptide 2 (w/conjugation handles), unconjugated (peptide)
peptide: APRWDAPLRDPALRQ[Tle][Cba]
modifications: also: conjugation handles, not given here
notes: also called Arb-SAR-Q15
